From patent publication US20260132129A1 (Genesis Therapeutics, Inc., priority 2022, published 2026)
pIC50: −log10 of the molar value.

Target: T1, PI3Kα H1047R (T47D cells) (Homo sapiens, UniProt P42336, H1047R)
T1 construct: endogenous in cells; host or cells: T47D cells
Experiment: PI3Kα cellular assay: pAKT HTRF in T47D cells after EGF stimulation
Assay type: cell-based
Details: for pIC50: T47D cells (PI3Kα H1047R), pAKT S473 HTRF
In short: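 pAKT read by HTRF in lysates of EGF-stimulated (20 ng/mL, 10 min) T47D H1047R cells. Before stimulation, serum-starved cells (16 h) received compound for 1 h at 37 °C, dosed from 10,000 nM down to 0.5 nM in 3-fold steps.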

[1] = selectivity of T47D (H1047R) over SKBR3 (WT) pAKT IC50
[2] = selectivity T47D (H1047R) over SKBR3 (WT), pAKT HTRF
[3] = 1 hr compound, 20 ng/ml EGF 10 min

T1 sequence (P42336 whole entry H1047R): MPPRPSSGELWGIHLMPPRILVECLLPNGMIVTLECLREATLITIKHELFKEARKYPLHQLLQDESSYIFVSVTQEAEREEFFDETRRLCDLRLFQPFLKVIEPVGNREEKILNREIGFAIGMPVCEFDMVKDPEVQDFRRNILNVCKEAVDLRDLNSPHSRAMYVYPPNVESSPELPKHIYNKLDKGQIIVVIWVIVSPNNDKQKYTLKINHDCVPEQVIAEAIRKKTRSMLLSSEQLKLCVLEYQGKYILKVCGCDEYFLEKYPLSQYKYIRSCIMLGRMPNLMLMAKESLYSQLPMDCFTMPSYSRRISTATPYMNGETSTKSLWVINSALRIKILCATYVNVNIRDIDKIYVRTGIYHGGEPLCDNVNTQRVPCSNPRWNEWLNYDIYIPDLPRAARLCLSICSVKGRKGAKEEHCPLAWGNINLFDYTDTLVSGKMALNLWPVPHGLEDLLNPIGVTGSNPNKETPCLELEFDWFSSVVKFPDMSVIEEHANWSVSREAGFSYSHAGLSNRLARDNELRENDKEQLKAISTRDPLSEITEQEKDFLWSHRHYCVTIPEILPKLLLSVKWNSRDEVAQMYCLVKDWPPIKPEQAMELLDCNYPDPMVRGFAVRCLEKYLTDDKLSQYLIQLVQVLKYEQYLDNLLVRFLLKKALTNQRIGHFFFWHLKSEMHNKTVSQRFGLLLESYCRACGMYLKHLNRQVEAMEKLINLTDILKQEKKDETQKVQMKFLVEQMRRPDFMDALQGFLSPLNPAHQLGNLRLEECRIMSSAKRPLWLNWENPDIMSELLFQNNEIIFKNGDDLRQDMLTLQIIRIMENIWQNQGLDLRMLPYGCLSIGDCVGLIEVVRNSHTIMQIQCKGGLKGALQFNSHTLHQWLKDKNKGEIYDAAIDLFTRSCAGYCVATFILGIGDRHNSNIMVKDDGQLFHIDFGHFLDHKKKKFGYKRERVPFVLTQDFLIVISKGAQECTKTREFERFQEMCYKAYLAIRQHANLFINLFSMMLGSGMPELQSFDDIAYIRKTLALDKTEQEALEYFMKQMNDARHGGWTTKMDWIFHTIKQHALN
T1 sequence (P27986 whole entry partner): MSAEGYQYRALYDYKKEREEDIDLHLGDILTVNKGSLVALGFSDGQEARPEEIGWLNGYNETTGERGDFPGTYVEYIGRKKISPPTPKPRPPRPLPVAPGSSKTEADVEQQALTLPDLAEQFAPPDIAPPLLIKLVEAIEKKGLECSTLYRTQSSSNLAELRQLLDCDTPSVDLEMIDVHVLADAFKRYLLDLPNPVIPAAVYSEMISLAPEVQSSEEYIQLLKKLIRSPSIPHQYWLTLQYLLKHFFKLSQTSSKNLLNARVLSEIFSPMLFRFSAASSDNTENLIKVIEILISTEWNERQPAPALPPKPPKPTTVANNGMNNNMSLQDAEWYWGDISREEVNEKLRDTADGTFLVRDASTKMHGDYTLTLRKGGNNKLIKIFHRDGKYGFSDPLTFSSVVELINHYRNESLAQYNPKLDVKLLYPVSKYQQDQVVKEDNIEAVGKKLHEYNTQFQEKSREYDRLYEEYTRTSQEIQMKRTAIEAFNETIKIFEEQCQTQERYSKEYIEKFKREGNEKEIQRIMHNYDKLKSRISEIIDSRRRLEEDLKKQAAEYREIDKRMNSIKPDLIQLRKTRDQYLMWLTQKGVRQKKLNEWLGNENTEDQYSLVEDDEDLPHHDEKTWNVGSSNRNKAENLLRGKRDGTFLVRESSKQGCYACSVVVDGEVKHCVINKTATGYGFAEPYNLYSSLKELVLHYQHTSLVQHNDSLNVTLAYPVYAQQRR

| Compound | pIC50 (EGF stimulation) | T47D pAKT S473 HTRF IC50 (H1047R): T47D (H1047R) selectivity over SKBR3 (WT) [1] | T47D pAKT S473 HTRF IC50 (H1047R): T47D (H1047R) selectivity over SKBR3 (WT) [2] | pIC50 [3] |
| --- | --- | --- | --- | --- |
| Cc1cc([C@H](C)Nc2ccccc2C(=O)O)c2nc(-c3cnc4c(c3)c(C)c(C)n4C)c(C)c(=O)n2c1 [Compound 805] | < 5.70 | C (C denotes ≤5-fold) |  |  |
| Cc1cc([C@@H](C)Oc2ccccc2C(=O)O)c2nc(-c3cccc(F)c3)c(C)c(=O)n2c1 [Compound 1372] | < 5.70 |  | C (C denotes ≤5-fold) |  |
| Cc1cc([C@@H](C)Nc2ccccc2C(=O)O)c2cc([C@@H]3CCCOC3)c(C#N)c(=O)n2c1 [Compound 1361] |  |  | A (A denotes >20-fold) |  |
| Cc1cc(C(C)Nc2ccccc2)c2nc(-c3ccc(N4CC(C)(C)C4)c(C#N)c3)cc(=O)n2c1 (centres unmarked) [Compound 280] |  |  | C (C denotes ≤5-fold) |  |
| CCC(Nc1ccccc1C(=O)O)c1cc(C)cn2c(=O)cc(N3CCOCC3)nc12 (centres unmarked) [Compound 132] |  |  | C (C denotes ≤5-fold) | 5.70 to 6.30 |
| Cc1cc([C@@H](C)Nc2ccccc2C(=O)O)c2nc(N3C[C@@H]4CC(F)(F)C[C@@H]4C3)cc(=O)n2c1 (single isomer, unassigned) [Compound 582] |  |  | C (C denotes ≤5-fold) | < 5.70 |
| Cc1cc(C(C)Nc2ccccc2C(=O)O)c2nc(-c3cnc(N)nc3)cc(=O)n2c1 (centres unmarked) [Compound 145] |  |  | B (B denotes 20-fold≥value>5-fold) | 5.70 to 6.30 |
| CC(=O)Nc1nn(C)c2ccc(-c3cc(=O)n4cc(C)cc(C(C)Nc5ccccc5C(=O)O)c4n3)cc12 (centres unmarked) [Compound 792] | < 5.70 | C (C denotes ≤5-fold) |  |  |
| Cc1cc(C(C)Nc2ccccc2C(=O)O)c2nc(C3CCN(CC(F)F)CC3)cc(=O)n2c1 (centres unmarked) [Compound 1308] | 6.30 to 7.00 |  | A (A denotes >20-fold) |  |
| Cc1cc([C@@H](C)Nc2ccccc2C(=O)C(F)(F)F)c2nc(N(C)Cc3ccccc3)c(C)c(=O)n2c1 [Compound 957] | < 5.70 | C (C denotes ≤5-fold) |  |  |
| Cc1cc([C@H](C)Nc2ccccc2C(=O)O)c2nc(-c3cnc4c(c3)c(C)nn4C)c(C)c(=O)n2c1 [Compound 763] | 5.70 to 6.30 | B (B denotes 20-fold≥value>5-fold) |  |  |
| Cc1cc([C@@H](C)Nc2cnncc2C(=O)O)c2nc(N3CCOCC3)cc(=O)n2c1 [Compound 375] |  |  | C (C denotes ≤5-fold) | < 5.70 |
| COc1cc(-c2cc(=O)n3cc(C)cc(C(C)Nc4ccccc4C(=O)O)c3n2)cc(S(N)(=O)=O)c1 (centres unmarked) [Compound 355] |  |  | B (B denotes 20-fold≥value>5-fold) | 5.70 to 6.30 |
| Cc1cc([C@H](C)Nc2ccccc2C(=O)O)c2nc(N3CC4(CCNCC4)C3)c(C)c(=O)n2c1 [Compound 917] |  | C (C denotes ≤5-fold) |  |  |
| CNC(=O)c1ccc(-c2cc(=O)n3cc(C)cc(C(C)Nc4ccccc4C(=O)O)c3n2)c(C)c1 (centres unmarked) [Compound 356] |  |  | C (C denotes ≤5-fold) | < 5.70 |
| Cc1cc([C@H](C)Nc2ccccc2C(=O)O)c2nc(N3CC4CC(F)(F)CC4C3)c(C)c(=O)n2c1 (some centres unmarked) [Compound 850] | < 5.70 | C (C denotes ≤5-fold) |  |  |
| Cc1cc([C@@H](C)Nc2ccccc2S(N)(=O)=O)c2nc(C3CCCOC3)c(C)c(=O)n2c1 (some centres unmarked) [Compound 1283] | < 5.70 |  | C (C denotes ≤5-fold) |  |
| Cc1cc([C@H](C)Nc2ccccc2C(=O)C(F)(F)F)c2nc(N3Cc4ccccc4C3)c(C)c(=O)n2c1 [Compound 958] | < 5.70 | C (C denotes ≤5-fold) |  |  |
| Cc1cc(C(C)Nc2ccccc2C(=O)O)c2nc(N3CC4(CCOCC4)C3)c(C)c(=O)n2c1 (centres unmarked) [Compound 904] | 6.30 to 7.00 | A (A denotes >20-fold) |  |  |
| Cc1cc([C@H](C)Nc2ccccc2-c2ccnnc2)c2nc(N3Cc4ccccc4C3)c(C3CC3)c(=O)n2c1 [Compound 875] | > 7.00 | A (A denotes >20-fold) |  |  |
| CC(=O)c1ccc(-c2cc(=O)n3cc(C)cc([C@@H](C)Nc4ccccc4C(=O)O)c3n2)cc1 [Compound 660] | > 7.00 | A (A denotes >20-fold) |  |  |
| Cc1cc([C@H](C)Nc2ccccc2C(=O)O)c2nc(-c3ccc4snc(N)c4c3)cc(=O)n2c1 [Compound 810] | < 5.70 | C (C denotes ≤5-fold) |  |  |
